Like-named read-outs stand apart in the source and are kept apart here.

The test system of one data set is HDACs. The experiment in a line: In vitro HDACi assay (BIOMOL fluorescent-based HDAC activity assay). It counts as biochemical. On the procedure:
(§1) In Vitro HDACi Assay for Determination of IC50 Values
(§2) The assay has been carried out in white 96 well formats according to the BIOMOL's method. […] The reaction mixture was incubated at room temperature for 2 hours. Flur de lys Developer was added and the reaction was incubated for 10 min. Briefly, deacetylation of the substrate sensitizes to the developer, which then generates a fluorophore. The fluorophore is excited with 360 nm light and the emitted light (460 nm) is detected on a fluorometric plate reader (Molecular Device Ultra Microplate detection system, MD Group Ltd).
(§3) The analytical software, Prism 4.0 (GraphPad Software Inc) has been used to generate IC50 from a series of data.

Another data set concerns the target HDAC6 (Homo sapiens (Human), UniProt Q9UBN7). Description: In vitro HDACi assay, HDAC6. In kind it is biochemical. The settings on record: Table 3; read-out: IC50 (nM) HDAC6. The protocol:
as §1, §2, §3

The next data set deals with MDAMB435. Description: Cell-based proliferation assay (SRB), MDAMB435. The settings on record: Homo sapiens, MDA-MB-435, Table 3. On the procedure:
(§4) Cell-Based Proliferation Assay for Determination of GI50 Values
(§5) A rapid multiwell plate assay using Sulforhodamine B (SRB) protein stain was adopted to evaluate the growth inhibitory effects of the compounds of the present invention. The screening panel of cancer cell lines includes Colo205 and HCT116 colon cancer cells, MDA-MB231 and MDA-MB435 chest cancer cells, A549 lung cancer cells, and Chinese hamster ovary cell line CHO, which were obtained from ATCC.
(§6) The cell line Colo205 is grown in RPMI 1640 medium containing 2 mM L-glutamine, 5% fetal bovine serum, and 1.0 mM sodium pyruvic acid. Cell lines A549 and MDA-MB231 are grown in RPMI 1640 medium containing 2 mM L-glutamine and 5% fetal bovine serum. The cell line MDA-MB435 is grown in DMEM medium containing 2 mM L-glutamine and 5% fetal bovine serum. The cell lines HCT 116 is grown in IMEM medium containing 2 mM L-glutamine and 5% fetal bovine serum. The CHO cell line, used as a normal control on toxicity, is grown in a special medium for cell line. For a typical screening experiment, A549 and Colo205 cells are inoculated into 96-well microtiter plates, with 100 μL per well, and 2000 and 5000 cells per well respectively for either cell line. MDA-MB435, HCT116, MDA-MB231 and CHO cells are also inoculated into 96-well microtiter plates, with 6000 cells per well. After cell inoculation, the microtiter plates are incubated at 37° C., 5% CO2, and 100% relative humidity for 24 hr in order to make cells adhere to well wall.
(§7) After 24 h incubation or time zero for drug addition, with each cell line 50 μl of cold 50% (w/v) TCA is added to wells used for control to fix cells in situ. Also at time zero, cells in other wells are treated with 100 μl of compound of different concentrations for 24 hr, 48 hr, and 72 hr respectively, with varying final compound concentration (0.1 μM, 1 μM, 5 μM 10 μM). For each treatment duration at each compound concentration, there are triplicate wells, as well as an array of control wells including a blank control well (cell culture medium only, no cells), a no-compound control well (adding same volume of cell culture medium but no compound), a positive control well (treated with Suberoylanilide hydroxamic acid (SAHA)), and normal cell well control (CHO cells). Following the addition of compounds, cell plates are incubated for 24 h, 48 h or 72 h per treatment group at 37° C., 5% CO2, and 100% relative humidity. The Treatment is then terminated by addition of cold TCA and incubation of 1 hr at 4° C. The supernatant is discarded, and all wells are washed five times with de-ioned water and air dried. Then each well is added with 100 μl sulforhodamine B (SRB) solution (0.4% (w/v) made in 1% acetic acid) and cell plates are incubated for 20-30 minutes at room temperature. After staining, unbound dye is removed by washing five times with 1% acetic acid and the plates are air dried. Bound stain is subsequently solubilized with 10 mM (200 μL) Tris base with the help of 5 min platform vibration or pipetting up and down, and the absorbance is read on an automated plate reader (M5 detection system, MD Group Ltd.) at a wavelength of 565 nm (calibrated zero reading of blank control at wavelength of 690 nm). The analytical software, XL-fit has been used to generate GI50 from a series of data thus obtained.

The test system of a further data set is HL-60. The experiment in a line: Cell-based proliferation assay (SRB), HL-60. Conditions: Homo sapiens, HL-60, Table 3.
Another data set has as its system Colo205. The experiment in a line: Cell-based proliferation assay (SRB), Colo205. The settings on record: Homo sapiens, COLO 205, Table 3. The protocol: as §4, §5, §6, §7
The next data set deals with HCT116. Description: Cell-based proliferation assay (SRB), HCT116. Conditions: Homo sapiens, HCT-116, Table 3. On the procedure:
as §4, §5, §6, §7

In a further data set the test system is SKOV-3. The experiment in a line: Cell-based proliferation assay (SRB), SKOV-3. Conditions: Homo sapiens, SK-OV-3, Table 3. On the procedure: as §4, §5, §6, §7
Another data set deals with BXPC-3. Description: Cell-based proliferation assay (SRB), BXPC-3. Conditions: Homo sapiens, BXPC-3, Table 3.
The subject of the next data set is MDAMB231. Description: Cell-based proliferation assay (SRB), MDAMB231. Conditions: Homo sapiens, MDA-MB-231; Table 4. The protocol: as §4, §5, §6, §7
A short description of data set [1]: Microsomal stability and clearance. It counts as in vitro ADME, human, mouse. The settings on record: microsomal stability; Table 4. The protocol:
Measure of Microsomal Stability and Clearance with Compounds of this Invention
Verapamil (positive control) and compound solution, both at 10 mM, are diluted 200 fold. There are six reaction time points in the experiment (0 min, 5 min, 15 min, 30 min, 45 min, and 60 min), and triplicate samples are used for each data point. There are controls for time zero and negative drug effect (negative control containing no incubation buffer or enzyme). For each compound or Verapamil sample, there are also samples treated with compound or Verapamil at concentrations of no positive effect (at 5 μM and 2.5 μM, respectively). Diluted positive control (Verapamil) and compound solution are mixed with pre-heated (37° C.) incubation buffer (100 mM potassium phosphate buffer, NADPH regeneration system solution B, NAPDH regeneration system solution A, HLM/MLM in Milli-Q ultrapure water), and incubated at 37° C. for 10 min. 100 μL of stop solution mixture is (containing 80% acetonitrile, and 20% DMSO, both of HPLC grade) is dispensed into wells of separate sampling plates into each well. At each reaction time point (0 min, 5 min, 15 min, 30 min, 45 min, and 60 min) 50 μL of reaction solution is taken from wells in the incubation plate and transferred to its corresponding well in the sampling plate, and mixed by pipetting up and down with stop solution already added there. The sampling plates are then covered, placed on ice, and centrifuged at 2,000 rpm at 4° C. for 15 min. 100 μL supernatant is then taken from each well to LC/MS analysis (or stored at 4° C. in refrigerator until analysis).
Data analysis: % remaining of compound is calculated by area of each time point with respect to time 0% remaining against time (min) curve is plotted using the first-phase exponential decay equation y=y0e(−kT) on the Prism 4.0. Results are shown in the format of TOP, K, t1/2 (min), R2 value and % remaining against time curve.

HDAC6, sequence (Q9UBN7 whole entry, species assumed): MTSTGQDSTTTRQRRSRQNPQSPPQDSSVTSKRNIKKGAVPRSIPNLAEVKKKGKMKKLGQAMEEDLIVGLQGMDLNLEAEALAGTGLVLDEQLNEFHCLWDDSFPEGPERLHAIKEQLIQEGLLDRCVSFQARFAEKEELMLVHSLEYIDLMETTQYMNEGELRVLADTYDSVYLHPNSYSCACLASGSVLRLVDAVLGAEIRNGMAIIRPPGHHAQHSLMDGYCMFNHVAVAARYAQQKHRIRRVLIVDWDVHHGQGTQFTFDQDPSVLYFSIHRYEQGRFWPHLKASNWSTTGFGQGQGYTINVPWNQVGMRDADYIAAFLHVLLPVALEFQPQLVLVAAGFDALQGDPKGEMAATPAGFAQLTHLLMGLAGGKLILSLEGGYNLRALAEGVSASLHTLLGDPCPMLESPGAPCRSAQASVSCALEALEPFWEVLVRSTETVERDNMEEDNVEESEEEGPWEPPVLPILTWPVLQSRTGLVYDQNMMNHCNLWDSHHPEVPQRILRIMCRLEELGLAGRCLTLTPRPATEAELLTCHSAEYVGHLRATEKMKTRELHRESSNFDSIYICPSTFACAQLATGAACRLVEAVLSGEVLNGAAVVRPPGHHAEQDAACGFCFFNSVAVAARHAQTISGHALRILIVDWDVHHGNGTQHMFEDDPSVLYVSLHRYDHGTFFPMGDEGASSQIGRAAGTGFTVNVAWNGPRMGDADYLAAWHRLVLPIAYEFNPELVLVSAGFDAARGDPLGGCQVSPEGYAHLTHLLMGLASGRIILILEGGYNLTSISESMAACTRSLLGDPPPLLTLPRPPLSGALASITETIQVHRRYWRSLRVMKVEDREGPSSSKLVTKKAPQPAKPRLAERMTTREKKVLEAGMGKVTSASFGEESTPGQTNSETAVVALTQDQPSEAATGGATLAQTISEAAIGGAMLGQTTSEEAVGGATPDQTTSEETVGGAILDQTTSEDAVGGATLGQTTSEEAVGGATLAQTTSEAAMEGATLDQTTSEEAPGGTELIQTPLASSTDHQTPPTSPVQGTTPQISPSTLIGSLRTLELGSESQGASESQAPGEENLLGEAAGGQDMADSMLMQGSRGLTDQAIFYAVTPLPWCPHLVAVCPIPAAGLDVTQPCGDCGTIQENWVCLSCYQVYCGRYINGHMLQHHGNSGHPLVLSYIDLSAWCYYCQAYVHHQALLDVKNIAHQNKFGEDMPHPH

`CCN(CC)CCSc1ccc(/C=C/C(=O)NO)cc1NCc1ccccc1` [Example 6, 3-(3-(benzylamino)-4-(2-(di-ethylamino)ethylthio)phenyl)-N-hydroxy-acrylamide]: the half-maximal inhibitory concentration (IC50) with HDACs (Table 3, read-out: IC50 (nM) HDACs) is 35 nM; in the data set on HDACs (Table 4, read-out: HDAC enzyme inhibition activity IC50), 96000 nM; at HDAC6 it was 275 nM. Further, the GI50 worked out at 1.95 µM in the data set on MDAMB435; 1.32 µM in the data set with HL-60; 2.28 µM with Colo205; 0.78 µM with HCT116; 2.81 µM in the data set on SKOV-3; 4.33 µM with BXPC-3. The 50% growth inhibitory concentration (GI50) in the data set with MDAMB231 was 4.39 µM. The half-life in data set [1] is 2.5 h.
